According to US20250203808A1, “REFRIGERANTS FOR AND METHODS OF COOLING ELECTRONICS” (HONEYWELL INTERNATIONAL INC., priority 2023, published 2025):
Like-named read-outs stand apart in the source and are kept apart here.

Tests used:
[1] = background, commercial 3M fluids; cited from earlier work
[2] = background, commercial 3M fluids; cited from earlier work; remark: listed apart in the source
[3] = Boiling point determination; type: physicochemical; conditions: for boiling point: Table 1, values understood as 'about'; for BP: Table E1
Protocol: (§1) The boiling point (“BP”) and dielectric constant (“Dk”) of HFO-1438ez(E) and HFO-1438ez(Z) were determined and the results are reported below in Table E1. Static dielectric constant for new molecules was calculated using Kirkwood theory as described in papers by Wang and Anderko [P. Wang and A. Anderko, Computation of dielectric constants of solvent mixtures and electrolyte solutions, Fluid Phase Equilibria 186 (2001) 103-122] and Harvey and Lemmon [A. H. Harvey and E. W. Lemmon, Method for estimating dielectric constant of natural gas mixtures, International Journal of Thermophysics 26 (2005) 31-46]. The dielectric property of each of HFO-1438ez(E) and HFO-1438ez(Z) was determined using the Agilent 85070 Dielectric Probe. All measurements were made at ambient pressure and room temperature (approximately 23° C.). Prior to making measurements, the system was calibrated from 1 GHz to 20 GHz with an open circuit, a short circuit, and DI water (@22.4° C.) standard. The result of the calibration is shown in the Table E1 below for DI H2O, and is consistent with DI water at 22.4° C. The accuracy of the probe is given as: Dielectric constant, er′=er′+/−0.05|er*| with er″=er″+/−0.05|er*| and (loss=er″/er′).

[4] = Dielectric constant and dissipation factor, Agilent 85070 Dielectric Probe, 20 GHz; type: physicochemical; conditions: values 'about'; for Dielectric Constant (20 GHz): room temperature
Protocol: “Dielectric Constant” means the dielectric constant as measured in accordance with ASTM D150-11 at room temperature at 20 giga hertz (GHz).
as §1

boiling point [3] [°C]	BP [3] [°C]	Dielectric Constant (20 GHz) [4]	Dissipation Factor (20 GHz) [4]	SMILES	boiling point [1] [°C]	dielectric constant [2]
				FC(F)(F)N1C(F)(F)C(F)(F)OC(F)(F)C1(F)F [FC-3284]	50	
				COC(F)(F)C(F)(F)C(F)(F)F [HFE7000, 1-methoxyheptafluoropropane (C3F7OCH3)]	34	7.4
28	30	2.43	0.09	F/C=C/C(F)(C(F)(F)F)C(F)(F)F [HFO-1438ezy(E), (E)-1,3,4,4,4-pentafluoro-(3-trifluoromethyl)-but-1-ene]		
55	55	7.8		F/C=C\C(F)(C(F)(F)F)C(F)(F)F [HFO-1438ezy(Z), (Z)-1,3,4,4,4-pentafluoro-(3-trifluoromethyl)-but-1-ene]		
